Assay: Study KAR5585-101 Part 1 (SAD): plasma pharmacokinetics after a single oral dose of KAR5585, fasting and fed (incl. dose proportionality and food effect)
Conditions: for half-life / AUC(0-t) / AUC / AUC(0-inf) / concentration at 12 h / Cmax / Tmax: human, po; for AUC: AUC0-tau; for AUC(0-inf): AUC0-∞; for Tmax: Median
[1] = 100 mg to 700 mg dose (7-fold increase in dose), fasting
[2] = 400 mg KAR5585, Cohort 3B (test) vs 3A (reference)
[3] = 400 mg KAR5585 single dose, Cohorts 3B vs 3A
[4] = 700 mg to 2000 mg (2.86-fold increase in dose), fasting
[5] = 100 to 2000 mg KAR5585 single oral dose, fasting, plasma analyte = label
[6] = KAR5417 after 100 mg KAR5585 single oral, fasted, Cohort 1, Geo. Mean
[7] = KAR5417 after 100 mg KAR5585 single oral, fasted, Cohort 1, Mean
[8] = KAR5417 after 200 mg KAR5585 single oral, fasted, Cohort 2, Geo. Mean
[9] = KAR5417 after 200 mg KAR5585 single oral, fasted, Cohort 2, Mean
[10] = KAR5417 after 400 mg KAR5585 single oral, fasted, Cohort 3A, Geo. Mean
[11] = KAR5417 after 400 mg KAR5585 single oral, fasted, Cohort 3A, Mean
[12] = KAR5417 after 400 mg KAR5585 single oral, fed, Cohort 3B, Geo. Mean
[13] = KAR5417 after 400 mg KAR5585 single oral, fed, Cohort 3B, Mean
[14] = KAR5417 after 700 mg KAR5585 single oral, fasted, Cohort 4, Geo. Mean
[15] = KAR5417 after 700 mg KAR5585 single oral, fasted, Cohort 4, Mean
[16] = KAR5417 after 1200 mg KAR5585 single oral, fasted, Cohort 5, Geo. Mean
[17] = KAR5417 after 1200 mg KAR5585 single oral, fasted, Cohort 5, Mean
[18] = KAR5417 after 2000 mg KAR5585 single oral, fasted, Cohort 6, Geo. Mean
[19] = KAR5417 after 2000 mg KAR5585 single oral, fasted, Cohort 6, Mean
[20] = plasma, 100 mg, KAR5417 after 100 mg KAR5585 single oral, fasted, Cohort 1, Geo. Mean
[21] = plasma, 100 mg, KAR5417 after 100 mg KAR5585 single oral, fasted, Cohort 1, Mean
[22] = plasma, 200 mg, KAR5417 after 200 mg KAR5585 single oral, fasted, Cohort 2, Geo. Mean
[23] = plasma, 200 mg, KAR5417 after 200 mg KAR5585 single oral, fasted, Cohort 2, Mean

For Nc1nc(O[C@H](c2ccc(Cl)cc2-c2ccccc2)C(F)(F)F)cc(N2CCC3(CC2)CN[C@H](C(=O)O)C3)n1 [KAR5417, (S)-8-(2-amino-6-((R)-1-(5-chloro-[1,1T-biphenyl]-2-yl)-2,2,2-trifluoroeth-oxy)pyrimidin-4-yl)-2,8-diazaspiro[4.5]decane-3-carboxylic acid], the “fold increase in mean AUC0-24” value [1] was 6.3 fold, the “fold increase in mean AUC0-inf” value [1] was 6.8 fold and the “fold increase in mean Cmax” value [1] was 7.27 fold. For the same molecule, the “AUC0-inf, Geometric LS Mean Ratio (fed/fasting)” value [2] was 2.02, the “AUC0-tau, Geometric LS Mean Ratio (fed/fasting)” value [2] was 2.04 and the “exposure as assessed by AUC0-tau and AUC0-inf, fed relative to fasting” value (400 mg KAR5585 single dose) was “approximately 2 fold”. The “fold increase in Cmax, fed vs fasting” value [3] was 1.8 fold, the “fold increase in mean AUC0-inf, fed vs fasting” value [3] was 1.8 fold and the “peak mean concentration under fed relative to fasting conditions, % higher” value [3] was “approximately 177%”. The “fold increase in AUC0-24” value [4] was 1.7 fold, the “fold increase in AUC0-inf” value [4] was 1.81 fold and the “fold increase in Cmax” value [4] was 1.38 fold. The “Dose proportionality power model, AUC0-12: Intercept estimate” value [5] was 14.5, the “Dose proportionality power model, AUC0-inf: Intercept estimate” value [5] was 12.3 and the “Dose proportionality power model, AUC0-tau: Intercept estimate” value [5] was 6.54. For the same molecule, the “Dose proportionality power model, Cmax: Intercept estimate” value [5] was 1.95, the AUC0-24/D [6] was 8.16 (hr*ng/mL)/mg and the Cmax/D [6] was 0.931 (ng/ml)/mg. The AUC0-24/D [7] was 8.47 (hr*ng/mL)/mg, the Cmax/D [7] was 1.07 (ng/ml)/mg and the t1/2 [7] was 4.67 h. The AUC0-24/D [8] was 4.70 (hr*ng/mL)/mg, the Cmax/D [8] was 0.658 (ng/ml)/mg and the AUC0-24/D [9] was 5.81 (hr*ng/mL)/mg. The Cmax/D [9] was 0.801 (ng/ml)/mg, the AUC0-24/D [10] was 7.43 (hr*ng/mL)/mg and the Cmax/D [10] was 1.11 (ng/ml)/mg. The AUC0-24/D [11] was 8.12 (hr*ng/mL)/mg, the Cmax/D [11] was 1.21 (ng/ml)/mg and the AUC0-24/D [12] was 13.4 (hr*ng/mL)/mg. For the same molecule, the Cmax/D [12] was 2.08 (ng/ml)/mg, the AUC0-24/D [13] was 13.6 (hr*ng/mL)/mg and the Cmax/D [13] was 2.15 (ng/ml)/mg. The AUC0-24/D [14] was 5.31 (hr*ng/mL)/mg, the Cmax/D [14] was 0.777 (ng/ml)/mg and the AUC0-24/D [15] was 7.58 (hr*ng/mL)/mg. The Cmax/D [15] was 1.11 (ng/ml)/mg, the AUC0-24/D [16] was 4.84 (hr*ng/mL)/mg and the Cmax/D [16] was 0.636 (ng/ml)/mg. For the same molecule, the AUC0-24/D [17] was 5.66 (hr*ng/mL)/mg, the Cmax/D [17] was 0.747 (ng/ml)/mg and the AUC0-24/D [18] was 4.26 (hr*ng/mL)/mg. For the same molecule, the Cmax/D [18] was 0.515 (ng/ml)/mg, the AUC0-24/D [19] was 4.54 (hr*ng/mL)/mg and the Cmax/D [19] was 0.542 (ng/ml)/mg. The half-life (in vivo, 700 mg) was 12.1 h, the AUC(0-t) (plasma, 100 mg, AUC0-12, KAR5417 after 100 mg KAR5585 single oral, fasted, Cohort 1, Geo. Mean) was 686 ng·h/mL and the AUC(0-t) (plasma, 100 mg, AUC0-12, KAR5417 after 100 mg KAR5585 single oral, fasted, Cohort 1, Mean) was 704 ng·h/mL. The AUC(0-t) (plasma, 100 mg, AUC0-24, KAR5417 after 100 mg KAR5585 single oral, fasted, Cohort 1, Geo. Mean) was 816 ng·h/mL, the AUC(0-t) (plasma, 100 mg, AUC0-24, KAR5417 after 100 mg KAR5585 single oral, fasted, Cohort 1, Mean) was 847 ng·h/mL and the AUC [20] was 605 ng·h/mL. It also gave an AUC [21] of 718 ng·h/mL, an AUC(0-inf) [20] of 847 ng·h/mL and an AUC(0-inf) [21] of 886 ng·h/mL. The concentration at 12 h (plasma, 100 mg, C12, KAR5417 after 100 mg KAR5585 single oral, fasted, Cohort 1, Geo. Mean) was 22.5 ng/mL, the concentration at 12 h (plasma, 100 mg, C12, KAR5417 after 100 mg KAR5585 single oral, fasted, Cohort 1, Mean) was 23.8 ng/mL and the Cmax [20] was 93.1 ng/mL. The Cmax [21] was 107 ng/mL, the AUC(0-t) (plasma, 100 mg, Plasma AUC0-96, KAR5417 in plasma, 100 mg KAR5585 single oral dose, mean) was 889 ng·h/mL and the half-life (plasma, 100 mg, t1/2, KAR5417 after 100 mg KAR5585 single oral, fasted, Cohort 1, Geo. Mean) was 4.51 h. It also gave a half-life (plasma, 100 mg, t1/2, KAR5417 after 100 mg KAR5585 single oral, fasted, Cohort 1, Mean) of 4.7 h, a Tmax (plasma, 100 mg, KAR5417 after 100 mg KAR5585 single oral, fasted, Cohort 1) of 4 h and an AUC(0-t) (plasma, 200 mg, AUC0-12, KAR5417 after 200 mg KAR5585 single oral, fasted, Cohort 2, Geo. Mean) of 771 ng·h/mL. It also gave an AUC(0-t) (plasma, 200 mg, AUC0-12, KAR5417 after 200 mg KAR5585 single oral, fasted, Cohort 2, Mean) of 947 ng·h/mL, an AUC(0-t) (plasma, 200 mg, AUC0-24, KAR5417 after 200 mg KAR5585 single oral, fasted, Cohort 2, Geo. Mean) of 940 ng·h/mL and an AUC(0-t) (plasma, 200 mg, AUC0-24, KAR5417 after 200 mg KAR5585 single oral, fasted, Cohort 2, Mean) of 1160 ng·h/mL. The AUC [22] was 866 ng·h/mL, the AUC [23] was 1120 ng·h/mL and the AUC(0-inf) [22] was 988 ng·h/mL. For the same molecule, the AUC(0-inf) [23] was 1230 ng·h/mL, the concentration at 12 h (plasma, 200 mg, C12, KAR5417 after 200 mg KAR5585 single oral, fasted, Cohort 2, Geo. Mean) was 27.3 ng/mL and the concentration at 12 h (plasma, 200 mg, C12, KAR5417 after 200 mg KAR5585 single oral, fasted, Cohort 2, Mean) was 32.9 ng/mL. It also gave a Cmax [22] of 132 ng/mL, a Cmax [23] of 160 ng/mL and an AUC(0-t) (plasma, 200 mg, Plasma AUC0-96, KAR5417 in plasma, 200 mg KAR5585 single oral dose, mean) of 1240 ng·h/mL. For the same molecule, the half-life (plasma, 200 mg, t1/2, KAR5417 after 200 mg KAR5585 single oral, fasted, Cohort 2, Geo. Mean) was 5.29 h, the half-life (plasma, 200 mg, t1/2, KAR5417 after 200 mg KAR5585 single oral, fasted, Cohort 2, Mean) was 5.4 h and the Tmax (plasma, 200 mg, KAR5417 after 200 mg KAR5585 single oral, fasted, Cohort 2) was 3 h. The AUC(0-t) (plasma, 400 mg, AUC0-12, KAR5417 after 400 mg KAR5585 single oral, fasted, Cohort 3A, Geo. Mean) was 2460 ng·h/mL, the AUC(0-t) (plasma, 400 mg, AUC0-12, KAR5417 after 400 mg KAR5585 single oral, fasted, Cohort 3A, Mean) was 2690 ng·h/mL and the AUC(0-t) (plasma, 400 mg, AUC0-12, KAR5417 after 400 mg KAR5585 single oral, fed, Cohort 3B, Geo. Mean) was 4170 ng·h/mL. The AUC(0-t) (plasma, 400 mg, AUC0-12, KAR5417 after 400 mg KAR5585 single oral, fed, Cohort 3B, Mean) was 4240 ng·h/mL, the AUC(0-t) (plasma, 400 mg, AUC0-24, KAR5417 after 400 mg KAR5585 single oral, fasted, Cohort 3A, Geo. Mean) was 2970 ng·h/mL and the AUC(0-t) (plasma, 400 mg, AUC0-24, KAR5417 after 400 mg KAR5585 single oral, fasted, Cohort 3A, Mean) was 3250 ng·h/mL. It also gave an AUC(0-t) (plasma, 400 mg, AUC0-24, KAR5417 after 400 mg KAR5585 single oral, fed, Cohort 3B, Geo. Mean) of 5370 ng·h/mL and an AUC(0-t) (plasma, 400 mg, AUC0-24, KAR5417 after 400 mg KAR5585 single oral, fed, Cohort 3B, Mean) of 5430 ng·h/mL.
